In paper PMC6321172, “Analysis of Vipadenant and Its In Vitro and In Vivo Metabolites via Liquid Chromatography-Quadrupole-Time-of-Flight Mass Spectrometry” (Pharmaceutics, 2018):
Where two headings read alike, the source gives them in different places.

Tests used:
[1] = Stock solution stability assessment (1 mg/mL in DMSO); type: physicochemical; settings: for Mean Accuracy (%), stock storage stability: DMSO stock, 6 months, −80°C
Method: (§1) Each stability assessment was carried out in blank rat plasma. Three levels of QC (low, medium and high) were used in the short-term, freeze-thaw, long-term and post-preparative stability assessments and two levels of QC (medium & high) were used in stock solution stability assessment. The short term stability assessment was carried out at room temperature (RT) over 4 h and the results obtained were compared with the control (0 min). In the long-term stability assessment, the samples kept frozen at −80 °C for 2 weeks were compared with the freshly prepared control group samples. The freeze-thaw stability was evaluated over three cycles of freezing (−80 °C) and thawing (RT). The post-preparative stability was assessed for the QC samples kept in an auto-sampler (10 °C) for 24 h. As a separate stock-solution stability assessment, the vipadenant stock-solution prepared at 1 mg/mL (DMSO) was stored at −80 °C for 6 months and its stability was evaluated. The stability test results were evaluated by confirming that the mean accuracy (%) of the nominal value which should be within ± 25% range.

[2] = Preliminary stability assessment in rat plasma QC samples; type: physicochemical; settings: for Mean Accuracy (%), post-preparative stability: processed rat plasma samples, 24 h, 4 °C; for Mean Accuracy (%), long-term stability: 2 weeks; for Mean Accuracy (%), long-term stability / Mean Accuracy (%), freeze-thaw stability: −80 °C; for Mean Accuracy (%), freeze-thaw stability: 3 cycles; for Mean Accuracy (%), short term stability: 4 h, RT
Method: as §1, with “The post-preparative stability was assessed for the QC samples kept in an auto-sampler (10 °C) for 24 h.” left out

[3] = In-house metabolic stability study (rat liver microsome); type: in vitro ADME; settings: liver microsomes, read-out: in vitro intrinsic clearance
[4] = Rat pharmacokinetic study after IV or PO administration; type: in vivo; settings: for Cmax: read-out: C0 or Cmax; for Vd: read-out: Vss
Method: Twenty microliters of the rat pharmacokinetics samples were placed in cluster tubes. As a make-up solution, 4 μL of DMSO was added to the cluster tube and 100 μL of ACN containing ISTD (verapamil) was also added. The mixture was capped, gently shaken for approximately 1 min and was then centrifuged for 5 min at 12,000 rpm (4 °C). Following the centrifugation, 50 μL supernatant was transferred to a clean test tube and was diluted with 100 μL of distilled water. The resulting mixture was then transferred to an LC-vial and 10 μL was injected to the LC-QTOF-MS. The same procedure was also applied to the STD samples and QC samples.
Data acquisition and LC-QTOF-MS operation was conducted using Analyst® TF Version 1.6 (Sciex). MultiQuant® Version 2.1.1 (Sciex) was used for the peak integration for vipadenant quantification. PeakView® Version 2.2 and MetabolitePilot™ Version 2.0.2 were used for the structural elucidation of vipadenant metabolites. […] Pharmacokinetic parameters were calculated in a non-compartmental analysis using WinNonlin® version 8.0.0 (Certara, Princeton, NJ, USA).
Male sprague-dawley rats (300 ± 10 g) were purchased from the Samtako Biokorea Co. (Gyeonggi, Korea) and housed in groups of 3~4 per cage and given standard rodent chow. […] Rats were distributed into four different groups (three rats per group; 1 & 2 mg/kg IV group and 2 & 5 mg/kg PO group). Blood was drawn into the heparinized tubes after IV (1 and 2 mg/kg) or PO (2 and 5 mg/kg) administration and was immediately centrifuged at 10,000 rpm for 5 min. […] The supernatant of the centrifuged samples (plasma) were transferred to the clean tubes and stored at −20 °C until analysis.
During the sample preparation of the PK samples, QC samples were included for the assurance of the analytical run.

[5] = rat plasma, nominal QC 15 ng/mL
[6] = rat plasma, nominal QC 165 ng/mL
[7] = rat plasma, nominal QC 1820 ng/mL
[8] = male, Sprague-Dawley, plasma, rat, IV 1 mg/kg
[9] = male, Sprague-Dawley, plasma, rat, IV 2 mg/kg
[10] = male, Sprague-Dawley, plasma, rat, PO 2 mg/kg
[11] = male, Sprague-Dawley, plasma, rat, PO 5 mg/kg

For `Cc1cc(Cn2nnc3c(-c4ccco4)nc(N)nc32)ccc1N` [vipadenant, Vipadenant], the “Mean Accuracy (%), stock storage stability” value ([1]; nominal QC 165 ng/mL) was 102.5%, the “Mean Accuracy (%), stock storage stability” value ([1]; nominal QC 1820 ng/mL) was 95.6% and the “time stock solution showed stability” value ([1]; stock solution prepared in DMSO) was 6 months. For the same compound, the “time processed samples stable” value ([2]; auto-sampler storage condition (10 °C)) was “at least 24 h”, the “Mean Accuracy (%), post-preparative stability” value ([2]; nominal QC 15 ng/mL) was 114.8% and the “Mean Accuracy (%), post-preparative stability” value ([2]; nominal QC 165 ng/mL) was 99.2%. For the same compound, the “Mean Accuracy (%), post-preparative stability” value ([2]; nominal QC 1820 ng/mL) was 94.9%, the “Mean Accuracy (%), long-term stability” value [2, 5] was 111.8% and the “Mean Accuracy (%), long-term stability” value [2, 6] was 104.1%. For the same compound, the “Mean Accuracy (%), long-term stability” value [2, 7] was 103.7%, the “Mean Accuracy (%), freeze-thaw stability” value [2, 5] was 118.8% and the “Mean Accuracy (%), freeze-thaw stability” value [2, 6] was 88.5%. The “Mean Accuracy (%), freeze-thaw stability” value [2, 7] was 91.1%, the “Mean Accuracy (%), short term stability” value [2, 5] was 97.8% and the “Mean Accuracy (%), short term stability” value [2, 6] was 90.5%. The “Mean Accuracy (%), short term stability” value [2, 7] was 92.6%, the “freeze-thaw stability (in words)” value ([2]; rat plasma, three cycles of freeze-thawing (RT vs. −80 °C)) was “stable” and the “time stable, long-term stability test” value ([2]; rat plasma, −80 °C storage) was “at least 2 weeks”. For the same compound, the “time stable in rat plasma QC sample” value ([2]; room temperature) was “at least 4 h”, the CLint scaled [3] was 20 mL/min/kg and the AUC(0-t) [4, 8] was 451 ng·h/mL. For the same compound, the Tmax [4, 8] was 2.6 min, the clearance [4, 8] was 37.8 ± 7.2 mL/min/kg and the half-life [4, 8] was 48 ± 5.8 min. The Cmax [4, 8] was 2210 ± 1160 ng/mL, the Vd [4, 8] was 1.08 ± 0.223 L/kg and the AUC(0-t) [4, 9] was 1510 ng·h/mL. The Tmax [4, 9] was 2 min, the clearance [4, 9] was 22.5 ± 4.3 mL/min/kg and the half-life [4, 9] was 71.2 ± 8.5 min. For the same compound, the Cmax [4, 9] was 3090 ± 222 ng/mL, the Vd [4, 9] was 1.21 ± 0.174 L/kg and the AUC(0-t) [4, 10] was 279 ng·h/mL. The Tmax [4, 10] was 7.5 min, the half-life [4, 10] was 65.2 ± 20.2 min and the Cmax [4, 10] was 230 ± 88 ng/mL. For the same compound, the AUC(0-t) [4, 11] was 887 ng·h/mL, the Tmax [4, 11] was 30 min and the half-life [4, 11] was 116 ± 59 min. For the same compound, the Cmax [4, 11] was 296 ± 87.3 ng/mL, the bioavailability ([4]; male, Sprague-Dawley, plasma, rat, PO 2 and 5 mg/kg vs IV 1 and 2 mg/kg, read-out: BA (average bioavailability)) was 30.4 ± 8.9% and the “clearance (in words)” value ([4]; rat IV study) was “low to moderate clearance”.
